Compound in one assay: O=[As]([O-])(O)O.[K+] [potassium arsenate]
The assay is described as follows: thermal stability z-score vs DMSO; higher = more thermally stabilized by treatment. The note with it: HeLa; arsenate concentration 1 mM. The method, then:
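Cellular thermal proteome profiling in HeLa cells treated with 1 mM arsenate for 1 h (DMSO pretreatment), heated to ten temperatures (37-66.3 °C). Soluble protein was quantified by TMT mass spectrometry relative to DMSO controls; the thermal stability score was transformed to a z-score; mean of n = 3 experiments.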

Compound in a further assay: NC(=O)CCCCC1CCSS1 [lipoamide]
Described as above. The note with it: HeLa, lipoamide concentration 100 µM. The method, then:
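Cellular thermal proteome profiling in HeLa cells. Cells were treated with 100 µM lipoamide for 1 h, with or without 1 mM arsenate for a further 1 h, then heated to ten temperatures (37-66.3 °C), and soluble protein was quantified by TMT mass spectrometry relative to 0.1% DMSO controls. The thermal stability score (sum of log2 fold changes minus the abundance score) was transformed to a z-score; mean of n = 3 experiments.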

Where [1] appears, read: arsenate co-treatment: 1 mM arsenate 1 h.
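Note: each temperature applied for 3 min, abundance score taken as mean log2 fold change at the two lowest temperatures, z-score obtained by mean subtraction and division by SD.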

Sequence of UniProt Q8TB96 (Q8TB96 whole entry): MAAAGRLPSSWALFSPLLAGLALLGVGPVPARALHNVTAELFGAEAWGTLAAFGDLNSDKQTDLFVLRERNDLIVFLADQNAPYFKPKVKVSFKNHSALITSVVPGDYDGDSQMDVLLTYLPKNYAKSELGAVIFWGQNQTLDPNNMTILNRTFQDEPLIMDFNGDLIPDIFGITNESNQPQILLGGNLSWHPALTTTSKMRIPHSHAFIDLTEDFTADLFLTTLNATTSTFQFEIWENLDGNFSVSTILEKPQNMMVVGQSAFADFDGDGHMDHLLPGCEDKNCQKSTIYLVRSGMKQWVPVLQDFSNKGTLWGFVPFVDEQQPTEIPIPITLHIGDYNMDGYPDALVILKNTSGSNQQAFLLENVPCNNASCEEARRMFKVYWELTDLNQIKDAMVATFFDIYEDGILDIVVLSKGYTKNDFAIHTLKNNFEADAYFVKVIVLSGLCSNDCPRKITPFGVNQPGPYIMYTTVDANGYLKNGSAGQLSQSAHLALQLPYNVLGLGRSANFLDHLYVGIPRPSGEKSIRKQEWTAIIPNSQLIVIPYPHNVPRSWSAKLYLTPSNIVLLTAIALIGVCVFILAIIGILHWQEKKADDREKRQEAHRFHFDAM
Sequence of UniProt Q13572 (Q13572 whole entry): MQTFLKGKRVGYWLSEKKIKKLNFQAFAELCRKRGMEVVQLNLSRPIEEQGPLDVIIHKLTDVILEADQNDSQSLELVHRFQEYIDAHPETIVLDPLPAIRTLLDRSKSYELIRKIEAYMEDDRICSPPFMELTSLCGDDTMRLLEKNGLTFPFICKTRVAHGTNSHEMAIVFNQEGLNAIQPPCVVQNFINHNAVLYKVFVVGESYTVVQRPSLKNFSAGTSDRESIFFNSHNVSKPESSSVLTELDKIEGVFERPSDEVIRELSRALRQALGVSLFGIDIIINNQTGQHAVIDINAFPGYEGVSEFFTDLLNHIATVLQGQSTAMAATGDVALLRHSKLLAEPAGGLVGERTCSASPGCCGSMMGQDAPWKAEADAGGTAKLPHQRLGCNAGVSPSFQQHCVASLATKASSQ
Sequence of UniProt P17301 (P17301 whole entry): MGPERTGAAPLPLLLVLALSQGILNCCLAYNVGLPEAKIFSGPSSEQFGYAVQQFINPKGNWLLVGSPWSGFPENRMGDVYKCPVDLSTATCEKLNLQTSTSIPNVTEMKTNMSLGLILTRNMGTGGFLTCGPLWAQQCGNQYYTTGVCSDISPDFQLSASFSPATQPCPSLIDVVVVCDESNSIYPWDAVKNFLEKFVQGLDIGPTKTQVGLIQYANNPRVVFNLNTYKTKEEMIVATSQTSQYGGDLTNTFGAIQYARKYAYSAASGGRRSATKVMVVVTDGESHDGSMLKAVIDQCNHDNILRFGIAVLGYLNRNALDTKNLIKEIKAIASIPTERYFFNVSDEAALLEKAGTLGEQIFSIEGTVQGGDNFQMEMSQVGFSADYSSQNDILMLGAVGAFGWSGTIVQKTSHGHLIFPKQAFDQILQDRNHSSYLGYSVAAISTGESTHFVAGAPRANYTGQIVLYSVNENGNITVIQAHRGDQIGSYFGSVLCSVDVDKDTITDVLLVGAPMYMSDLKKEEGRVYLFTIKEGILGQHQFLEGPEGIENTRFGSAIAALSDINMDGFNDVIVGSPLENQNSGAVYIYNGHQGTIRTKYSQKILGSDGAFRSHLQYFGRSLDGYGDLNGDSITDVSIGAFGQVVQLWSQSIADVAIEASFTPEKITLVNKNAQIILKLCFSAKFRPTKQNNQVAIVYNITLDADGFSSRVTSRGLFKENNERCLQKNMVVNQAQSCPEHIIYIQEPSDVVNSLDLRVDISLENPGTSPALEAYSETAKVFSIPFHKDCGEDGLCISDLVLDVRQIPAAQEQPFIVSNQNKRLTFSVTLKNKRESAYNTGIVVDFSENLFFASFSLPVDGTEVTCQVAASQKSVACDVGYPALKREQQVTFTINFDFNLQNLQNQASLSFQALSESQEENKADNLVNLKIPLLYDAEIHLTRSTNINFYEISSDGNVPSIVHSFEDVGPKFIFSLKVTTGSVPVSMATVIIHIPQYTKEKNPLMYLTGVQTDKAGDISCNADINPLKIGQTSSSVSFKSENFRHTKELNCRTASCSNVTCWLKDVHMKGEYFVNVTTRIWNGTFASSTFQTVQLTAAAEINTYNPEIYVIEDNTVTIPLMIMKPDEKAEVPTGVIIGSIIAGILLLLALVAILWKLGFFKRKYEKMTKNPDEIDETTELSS
Sequence of UniProt P06756 (P06756 whole entry): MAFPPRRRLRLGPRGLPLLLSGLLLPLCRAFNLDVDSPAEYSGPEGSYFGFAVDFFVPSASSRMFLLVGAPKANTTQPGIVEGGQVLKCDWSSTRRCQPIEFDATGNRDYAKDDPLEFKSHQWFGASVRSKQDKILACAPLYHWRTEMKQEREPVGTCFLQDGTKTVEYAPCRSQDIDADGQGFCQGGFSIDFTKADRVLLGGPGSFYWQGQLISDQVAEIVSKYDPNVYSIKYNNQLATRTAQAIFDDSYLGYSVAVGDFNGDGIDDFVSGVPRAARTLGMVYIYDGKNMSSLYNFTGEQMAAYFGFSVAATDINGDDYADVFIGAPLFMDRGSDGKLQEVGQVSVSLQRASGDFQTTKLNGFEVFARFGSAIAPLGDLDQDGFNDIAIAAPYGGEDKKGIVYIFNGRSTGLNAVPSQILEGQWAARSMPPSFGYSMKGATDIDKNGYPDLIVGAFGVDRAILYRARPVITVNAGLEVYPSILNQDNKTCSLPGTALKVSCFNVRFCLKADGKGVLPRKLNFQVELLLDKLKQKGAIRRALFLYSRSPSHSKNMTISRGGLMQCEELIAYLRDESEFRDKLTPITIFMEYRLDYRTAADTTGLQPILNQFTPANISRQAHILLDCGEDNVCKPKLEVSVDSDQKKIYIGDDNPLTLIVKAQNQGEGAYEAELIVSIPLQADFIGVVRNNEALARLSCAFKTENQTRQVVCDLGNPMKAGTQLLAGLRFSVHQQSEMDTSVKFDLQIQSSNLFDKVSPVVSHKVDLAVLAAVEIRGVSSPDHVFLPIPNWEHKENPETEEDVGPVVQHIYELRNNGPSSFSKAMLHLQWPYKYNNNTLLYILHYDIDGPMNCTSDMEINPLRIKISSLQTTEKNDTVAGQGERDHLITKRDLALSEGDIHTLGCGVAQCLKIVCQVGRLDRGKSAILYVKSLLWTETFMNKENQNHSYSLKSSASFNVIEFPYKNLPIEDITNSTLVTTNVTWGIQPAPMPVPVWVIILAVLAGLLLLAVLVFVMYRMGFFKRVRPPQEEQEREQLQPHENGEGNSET
Sequence of UniProt Q3MIP1 (Q3MIP1 whole entry): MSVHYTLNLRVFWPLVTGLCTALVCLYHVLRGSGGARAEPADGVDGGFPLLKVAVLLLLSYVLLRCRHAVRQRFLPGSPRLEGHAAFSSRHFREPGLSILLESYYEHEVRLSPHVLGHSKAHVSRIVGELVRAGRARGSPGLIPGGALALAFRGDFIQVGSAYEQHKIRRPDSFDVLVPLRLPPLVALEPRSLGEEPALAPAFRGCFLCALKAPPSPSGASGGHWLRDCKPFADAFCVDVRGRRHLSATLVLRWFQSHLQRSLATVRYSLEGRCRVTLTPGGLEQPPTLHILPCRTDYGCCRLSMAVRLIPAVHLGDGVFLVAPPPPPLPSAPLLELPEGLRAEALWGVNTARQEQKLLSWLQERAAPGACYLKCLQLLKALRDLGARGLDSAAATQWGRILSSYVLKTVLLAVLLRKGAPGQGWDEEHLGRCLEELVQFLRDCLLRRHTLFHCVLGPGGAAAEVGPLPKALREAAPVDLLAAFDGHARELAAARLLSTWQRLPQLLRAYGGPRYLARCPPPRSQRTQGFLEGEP
Sequence of UniProt P23229 (P23229 whole entry): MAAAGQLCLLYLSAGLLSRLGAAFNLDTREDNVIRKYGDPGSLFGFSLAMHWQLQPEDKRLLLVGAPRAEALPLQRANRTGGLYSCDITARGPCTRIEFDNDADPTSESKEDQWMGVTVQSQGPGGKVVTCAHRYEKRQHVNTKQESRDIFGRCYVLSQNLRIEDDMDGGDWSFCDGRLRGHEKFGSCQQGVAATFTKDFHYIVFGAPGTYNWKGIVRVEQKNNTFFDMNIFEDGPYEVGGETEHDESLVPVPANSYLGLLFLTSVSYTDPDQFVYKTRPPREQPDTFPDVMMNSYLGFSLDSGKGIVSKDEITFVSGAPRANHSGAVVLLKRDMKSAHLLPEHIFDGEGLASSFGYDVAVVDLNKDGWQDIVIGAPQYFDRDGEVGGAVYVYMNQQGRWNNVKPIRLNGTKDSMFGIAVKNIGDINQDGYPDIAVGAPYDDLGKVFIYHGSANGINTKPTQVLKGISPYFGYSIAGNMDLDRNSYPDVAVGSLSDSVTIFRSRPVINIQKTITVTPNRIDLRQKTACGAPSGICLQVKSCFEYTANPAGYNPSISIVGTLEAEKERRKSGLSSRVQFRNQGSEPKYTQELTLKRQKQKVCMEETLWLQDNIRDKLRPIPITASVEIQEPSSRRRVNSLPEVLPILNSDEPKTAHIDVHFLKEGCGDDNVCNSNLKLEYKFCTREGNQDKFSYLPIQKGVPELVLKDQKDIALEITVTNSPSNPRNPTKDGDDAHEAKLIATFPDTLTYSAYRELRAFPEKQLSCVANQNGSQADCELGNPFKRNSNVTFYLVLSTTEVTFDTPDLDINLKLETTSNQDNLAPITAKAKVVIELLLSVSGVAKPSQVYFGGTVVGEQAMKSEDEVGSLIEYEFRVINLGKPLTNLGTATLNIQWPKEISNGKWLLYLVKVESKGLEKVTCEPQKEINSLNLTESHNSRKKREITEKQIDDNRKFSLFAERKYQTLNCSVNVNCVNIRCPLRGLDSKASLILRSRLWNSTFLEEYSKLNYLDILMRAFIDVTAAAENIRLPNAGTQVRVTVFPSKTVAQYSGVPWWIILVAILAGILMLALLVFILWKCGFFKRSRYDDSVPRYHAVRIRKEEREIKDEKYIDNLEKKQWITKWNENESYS

As to ISY1 (UniProt Q9ULR0), the thermal stability z-score with potassium arsenate was -0.872; with lipoamide (setting [1]), 0.997; in the assay with lipoamide (arsenate co-treatment: none), 0.693.
The matching figures for ITCH (UniProt Q96J02): -0.386, -0.451 and -0.173.
The matching figures for ITFG1 (UniProt Q8TB96): 0.61, -0.794 and -0.597.
In the same order, the values of ITFG2 (UniProt Q969R8) are -0.266, 1.01 and 0.534.
Consider ITGA1 (UniProt P56199), for which the thermal stability z-score with potassium arsenate is -0.126; with lipoamide (setting [1]), 0.216; with lipoamide (arsenate co-treatment: none), 0.171.
With ITGA2 (UniProt P17301), the thermal stability z-score in the assay with potassium arsenate was 0.278; with lipoamide (setting [1]) it was 0.217; in the assay with lipoamide (arsenate co-treatment: none), 0.235.
For ITGA3 (UniProt P26006), the thermal stability z-score with potassium arsenate was found to be 0.402; with lipoamide (setting [1]) it was 0.122; in the assay with lipoamide (arsenate co-treatment: none), 0.207.
In the same order, the values of ITGA5 (UniProt P08648) are 0.211, 0.408 and 0.203.
In the same order, the values of ITGA6 (UniProt P23229) are 0.156, -0.0761 and 0.174.
The matching figures for ITGAV (UniProt P06756): -0.323, -0.283 and -0.316.
With ITGB1 (UniProt P05556), the values for the thermal stability z-score in the assay with potassium arsenate, in the assay with lipoamide (setting [1]) and with lipoamide (arsenate co-treatment: none) were 0.139, -0.614 and -0.431, respectively.
In the same order, the values of ITGB5 (UniProt P18084) are 0.289, -1.1 and -0.661.
In the same order, the values of ITM2B (UniProt Q9Y287) are -0.251, 0.215 and -0.0896.
The matching figures for ITPA (UniProt Q9BY32): 0.199, 0.939 and 0.734.
As for ITPK1 (UniProt Q13572), the thermal stability z-score is -0.31 in the assay with potassium arsenate, -0.0201 in the assay with lipoamide (setting [1]) and 0.179 with lipoamide (arsenate co-treatment: none).
In the same order, the values of ITPR1 (UniProt Q14643) are -0.46, -0.434 and -0.461.
The matching figures for ITPR2 (UniProt Q14571): -0.238, -0.269 and -0.265.
The matching figures for ITPR3 (UniProt Q14573): -0.418, -1.24 and -0.526.
In the case of ITPRIP (UniProt Q8IWB1), the thermal stability z-score with potassium arsenate was -0.289; with lipoamide (setting [1]) it was -0.976; with lipoamide (arsenate co-treatment: none), -0.936.
In the same order, the values of ITPRIPL2 (UniProt Q3MIP1) are -0.0231, -0.176 and -0.34.
As to ITSN1 (UniProt Q15811), the thermal stability z-score in the assay with potassium arsenate was 0.365; with lipoamide (setting [1]), -0.734; in the assay with lipoamide (arsenate co-treatment: none) it was -0.15.
The matching figures for ITSN2 (UniProt Q9NZM3): -0.725, -0.803 and -1.23.
In the same order, the values of IVD (UniProt P26440) are 0.902, 0.0798 and -0.0801.
